Patent publication US7713970B2, “Substituted cyclic urea derivatives” (FMC Corporation, priority 2004, dated 2010)

System: tobacco budworm (Heliothis virescens [Fabricius])
Assay: surface-treated diet test against tobacco budworm
Assay type: in vivo
Conditions: 0.25 millimolar candidate insecticide on the surface of the diet, second instar larvae, five-day exposure; for Percent Mortality: compared to total number of insects infested; for Percent Growth Inhibition: inhibition of insect weight relative to untreated controls
Protocol: Candidate insecticides were evaluated for activity against the tobacco budworm (Heliothis virescens [Fabricius]) in a surface-treated diet test.
In this test one mL of molten (65-70° C.) wheat germ-based artificial diet was pipetted into each well of a four by six (24 well) multi-well plate (ID# 430345-15.5 mm dia.×17.6 mm deep; Corning Costar Corp., One Alewife Center, Cambridge, Mass. 02140). The diet was allowed to cool to ambient temperature before treatment with candidate insecticide.
For a determination of insecticidal activity, solutions of the candidate insecticides were prepared for testing using a Packard 204DT Multiprobe® Robotic System (Packard Instrument Company, 800 Research Parkway, Meriden, Conn. 06450), in which the robot first diluted a standard 50 millimolar DMSO solution of candidate insecticide with a 1:1 water/acetone solution (V/V) in a ratio of 1:7 stock solution to water/acetone. The robot subsequently pipetted 40 microliters of the so-prepared solution onto the surface of the diet in each of three wells in the 24 multi-well plate. The process was repeated with solutions of seven other candidate insecticides. Once treated, the contents of the multi-well plate were allowed to dry, leaving 0.25 millimoles of candidate insecticide on the surface of the diet, or a concentration of 0.25 millimolar. Appropriate untreated controls containing only DMSO on the diet surface were also included in this test.
For evaluations of the insecticidal activity of a candidate insecticide at varying rates of application, the test was established as described above using sub-multiples of the standard 50 millimolar DMSO solution of candidate insecticide. For example, the standard 50 millimolar solution was diluted by the robot with DMSO to give 5, 0.5, 0.05, 0.005, 0.0005 millimolar, or more dilute solutions of the candidate insecticide. In these evaluations there were six replicates of each rate of application placed on the surface of the diet in the 24 multi-well plate, for a total of four rates of application of candidate insecticide in each plate.
In each well of the test plate was placed one second instar tobacco budworm larvea, each weighing approximately five milligrams. After the larvae were placed in each well, the plate was sealed with clear polyfilm adhesive tape. The tape over each well was perforated to ensure an adequate air supply. The plates were then held in a growth chamber at 25° C. and 60% relative humidity for five days (light 14 hours/day).
After the five-day exposure period insecticidal activity for each rate of application of candidate insecticide was assessed as percent inhibition of insect weight relative to the weight of insects from untreated controls, and percent mortality when compared to the total number of insects infested.

SMILES | Percent Mortality | Percent Growth Inhibition
O=c1n(CCOc2c(Cl)cc(OCC=C(Cl)Cl)cc2Cl)nnn1-c1cccc(Cl)c1 [Compound 308] | 100% | 100%
O=c1n(CCCOc2c(Cl)cc(OCC=C(Cl)Cl)cc2Cl)nnn1-c1cccc(Cl)c1 [Compound 309] | 100% | 100%
CC1(C)Cc2cccc(-n3nnn(CCCCOc4c(Cl)cc(OCC=C(Cl)Cl)cc4Cl)c3=O)c2O1 [Compound 335] | 100% | 100%
O=c1n(CCCCOc2c(Cl)cc(OCC=C(Cl)Cl)cc2Cl)nnn1Cc1ccccc1 [Compound 512] | 100% | 100%
O=c1n(CCCCOc2c(Cl)cc(OCC=C(Cl)Cl)cc2Cl)nnn1Cc1ccccc1Cl [Compound 513] | 100% | 100%
O=c1n(CCCCOc2c(Cl)cc(OCC=C(Cl)Cl)cc2Cl)nnn1Cc1cccc(Cl)c1 [Compound 514] | 100% | 100%
O=c1n(CCCCOc2c(Cl)cc(OCC=C(Cl)Cl)cc2Cl)nnn1Cc1ccc(Cl)cc1 [Compound 515] | 100% | 100%
O=c1n(CCCCOc2c(Cl)cc(OCC=C(Cl)Cl)cc2Cl)nnn1Cc1ccc(Cl)cc1Cl [Compound 517] | 100% | 100%
O=c1n(CCCCOc2c(Cl)cc(OCC=C(Cl)Cl)cc2Cl)nnn1Cc1ccc(Cl)c(Cl)c1 [Compound 520] | 0% | 58%
O=c1n(CCCCOc2c(Cl)cc(OCC=C(Cl)Cl)cc2Cl)nnn1Cc1cc(Cl)cc(Cl)c1 [Compound 521] | 100% | 100%
O=c1n(CCOc2c(Cl)cc(OCC=C(Cl)Cl)cc2Cl)nnn1Cc1ccccc1Cl [Compound 522] | 50% | 100%
O=c1n(CCCOc2c(Cl)cc(OCC=C(Cl)Cl)cc2Cl)nnn1Cc1ccccc1Cl [Compound 523] | 100% | 100%
O=c1n(Cc2ccc(C(F)(F)F)cc2)cnn1CCCCOc1c(Cl)cc(OCC=C(Cl)Cl)cc1Cl [Compound 546] | 100% | 100%
O=c1n(Cc2ccc(C(F)(F)F)cc2)cnn1CCOc1c(Cl)cc(OCC=C(Cl)Cl)cc1Cl [Compound 548] | 100% | 100%
O=C1CN(CCCCOc2c(Cl)cc(OCC=C(Cl)Cl)cc2Cl)C(=O)N1c1ccc(Cl)cc1 [Compound 576] | 100% | 100%
O=C1C(=O)N(c2ccc(Cl)cc2)C(=O)N1CCCCOc1c(Cl)cc(OCC=C(Cl)Cl)cc1Cl [Compound 613] | 100% | 100%
O=c1cnn(-c2ccc(Cl)c(Cl)c2)c(=O)n1CCCCOc1c(Cl)cc(OCC=C(Cl)Cl)cc1Cl [Compound 647] | 100% | 100%
O=c1cnn(-c2ccc(Cl)cc2Cl)c(=O)n1CCCCOc1c(Cl)cc(OCC=C(Cl)Cl)cc1Cl [Compound 648] | 100% | 100%
O=c1cnn(-c2cc(Cl)cc(Cl)c2)c(=O)n1CCCCOc1c(Cl)cc(OCC=C(Cl)Cl)cc1Cl [Compound 649] | 100% | 100%
O=c1cnn(-c2cccc(Cl)c2)c(=O)n1CCCCOc1c(Cl)cc(OCC=C(Cl)Cl)cc1Cl [Compound 650] | 100% | 100%
O=c1cnn(-c2ccc(Cl)cc2)c(=O)n1CCCCOc1c(Cl)cc(OCC=C(Cl)Cl)cc1Cl [Compound 651] | 100% | 100%
O=c1cnn(-c2ccccc2Cl)c(=O)n1CCCCOc1c(Cl)cc(OCC=C(Cl)Cl)cc1Cl [Compound 652] | 100% | 100%
O=c1cnn(-c2ccc(F)cc2F)c(=O)n1CCCCOc1c(Cl)cc(OCC=C(Cl)Cl)cc1Cl [Compound 653] | 100% | 100%
COc1cc(-n2ncc(=O)n(CCCCOc3c(Cl)cc(OCC=C(Cl)Cl)cc3Cl)c2=O)ccc1Cl [Compound 654] | 100% | 100%
COc1ccc(-n2ncc(=O)n(CCCCOc3c(Cl)cc(OCC=C(Cl)Cl)cc3Cl)c2=O)cc1 [Compound 655] | 100% | 100%
O=c1cnn(-c2ccc(OC(F)F)cc2)c(=O)n1CCCCOc1c(Cl)cc(OCC=C(Cl)Cl)cc1Cl [Compound 656] | 100% | 100%
O=c1cnn(-c2ccccc2)c(=O)n1CCCCOc1c(Cl)cc(OCC=C(Cl)Cl)cc1Cl [Compound 657] | 100% | 100%
O=c1n(CCCCOc2cc(Cl)c(OCC=C(Cl)Cl)c(Cl)c2)nnn1-c1cccc(Cl)c1 [Compound 661] | 100% | 100%
